Tests used:
[1] = test system: H7 regulatory region fused to GUS reporter gene in transgenic tobacco callus; assay: In vitro induction of GUS expression by ABA in callus (histochemical GUS assay); type: cell-based, tobacco (cultivar PetH4); conditions: callus on solid media pH 5.0 with 40 μM ABA, 2 days, 25° C.
Description: (§1) In order to test induction of the expression of transgenes using abscisic acid (ABA), the H7 promoter was fused to the beta-glucuronidase (GUS) reporter gene and histochemical assays conducted for GUS gene activity, which results in a blue colour in plant tissue (Jefferson et al., 1987, EMBO J. 6:3901-7). The promoter region for the H7 (nucleotides 1-634 of FIG. 8; SEQ ID NO:4) was fused to the 5′ terminus of the GUS gene in the binary vector pB1101 (Jefferson et al., 1987, EMBO J. 6:3901-7, FIG. 1a), as described in Example 4.
(§2) Transgenic plants were grown to maturity, but prior to flowering, in a greenhouse at 23-25° C., with supplemental light to provide an approximately 16 h photoperiod and with 20-20-20 fertilizer as required.
Leaf discs were cut and surface sterilized using 3.5% bleach for 20 min, then washed with ethanol and rinsed three times with distilled water. The washed discs were plated in Petri dishes on original callusing media (MS medium supplemented with vitamins, 2.0 mg/L NAA, 0.2 mg/L BAP pH 5.8, 7 g/L agar solid media and 100 mg/L kanamycin). The Petri dishes were then placed in a dark incubator at 25° C. for 3 days. Following dark incubation, plated discs were then incubated at 25° C. with a 16 h photoperiod for 2-3 weeks.
Over this time, abundant callus (white or pale green) are formed, overgrowing the original tissue. […]

[2] = test system: H7 regulatory region fused to GUS reporter gene in transgenic tobacco plants; assay: In planta induction of GUS expression by ABA (histochemical GUS assay); type: in vivo, tobacco (cultivar PetH4); conditions: plants sprayed with 25-50 mL 6.0 AM ABA in distilled water with Tween-20, left 24 h; non-treated plants exhibited no GUS activity
Description: Tobacco leaves from regenerated plants grown in the greenhouse, and leaves and stems from M. truncatula plants grown from the cocultivated seedlings were incubated in the X-gluc substrate and the green pigments removed for visualization of the blue precipitate resulting from GUS enzyme activity (Jefferson et al., 1987, EMBO J. 6:3901-7).
as §1
The binary vector was transferred tobacco plants (cultivar PetH4) using Agrobacterium tumefaciens, as previously described in Example 4.
as §2
Plants were sprayed with 25-50 mL 6.0 AM ABA (trans isomers ABA, Sigma) in distilled water, with a drop of Tween™-20 until the leaves were dripping. […]

`CC1=CC(=O)CC(C)(C)[C@@]1(O)/C=C/C(C)=C\C(=O)O` [ABA, abscisic acid] was tested, and the “GUS expression in callus” value [1] was “GUS is expressed in the callus” and the “GUS activity in leaves” value [2] was “GUS activity was detected”.
